# Reference: US6846845B2, “Heat shock protein inducer” (Eisai Co., Ltd., priority 2002, dated 2005)
# Key:
# Type in all cases: in vivo, rat
# myocardial cells = test: Electron microscope findings in left ventricular papillary muscle after ischemia/reperfusion; settings: GGA-treated rats, 20 min no-flow ischemia and 30 min reperfusion
# Description: After 30 minutes of reperfusion […] 20 minutes of no-flow ischemia, the papillary muscle of the left ventricle was immediately removed from the GGA-treated and Control hearts, and cut into small blocks. The tissue blocks were then fixed in a cacodylate buffered (pH 7.4) solution containing 2.5% glutaraldehyde and paraformaldehyde at 4° C. for 2 hours, and postfixed in a cocodylate buffered (pH 7.4) solution containing 2% osmium tetroxide and 0.5% potassium ferrocyanide at 4° C. for 2 hours. The tissue blocks were then dehydrated in ethanol and embedded in epoxy resin. Ultra-thin sections were stained with uranyl acetate and lead cistate, and were viewed under a transmission electron microscope (JOEL-100CX, Tokyo).
# [1] = Observation of abnormalities (side-effects) during oral administration; settings: rats, oral 50, 100, 200 and 400 mg/kg
# Description: (§1) An emulsion of 100% by weight of geranylgeranylacetone (GGA) with 5% by weight of gum arabic and 0.008% by weight of tocopherol was given orally to the rats described above. The oral dosages were 50 mg/kg, 100 mg/kg, 200 mg/kg and 400 mg/kg (GGA groups). […] The vehicle was administered orally to the Control Group.
# thioredoxin = test: Thioredoxin induction in the heart after oral administration (Western blotting); settings: oral 200 mg/kg, 24 hours after administration, FIG. 4(B)
# Excerpt: Monoclonal IgG antibody cross-reactive to HSP70, HSP60 and HSP27 antibodies was purchased from Stressgen Biotechnologies Corporation ([…], Canada). Primary antibodies of nitric oxide synthase (NOS) or in other words inducible NOS (iNOS), endothelial NOS (eNOS) and neuronal NOS (nNOS) were purchased from Transduction Laboratories (Lexington, Ky.). The primary antibody of thioredoxin was kindly provided by Professor Yodoi of Kyoto University.
# as §1
# Next, the hearts were removed from the killed rats and frozen in liquid nitrogen. […]
# The total protein concentration of the myocardium was quantified by the Bradford method (Bradford M M. A rapid and sensitive method for quantitation of microgram quantities of protein utilizing the principle of protein-dye binding. Anal Biochem 1976; 72:248-254). […] The proteins were detected by exposing the ECL cells with Hyperfilm (Amersham Pharmacia, Buckinghamshire, UK). Based on this, the amount of proteins on the immunoblots was quantified using National Institutes of Health (NIH) imaging software. […]
# HSP70 = test: Effect of chelerythrine pretreatment on GGA-induced HSP70 expression in the heart (Western immunoblotting), Example 2; settings: 24 h after GGA 200 mg/kg oral or vehicle; chelerythrine 5 mg/kg i.v. pretreatment, FIG. 8
# Description: Male Sprague-Dawley rats (220-250 g) were used. GGA, as an emulsion with 5% gum arabic and 0.008% tocopherol, was given orally at a dose of 200 mg/kg. Rats were classified into 4 groups. FIG. 7 is a diagrammatic representation of experimental protocol. […] Twenty-four hours after oral administration of GGA or vehicle, rats were anesthetized (sodium pentobarbital, 50 mg/kg IP) and heparinized (500 IU/kg IP). Hearts were excised, immediately frozen in liquid nitrogen, and stored at −70° C. until use for Western blot analysis (n=4 for each group). […]
# To analyze the expression of HSP70, the frozen heart samples were homogenized with SDS sample buffer (pH 6.8, 20% glycerol, 6% SDS, 0.12M Tris), centrifuged and boiled (Maloyan A, Palmon A, Horowitz M. Heat acclimation increases the basal HSP70 level and alters its production dynamics during heat stress. Am J Physiol. 1999; 276:R1506-R1515.). […] The total protein concentration of heart was quantified by the Bradford method (Bradford MM. A rapid and sensitive method for quantitation of microgram quantities of protein utilizing the principle of protein-dye binding. Anal. Biochem. 1976;72:248-254). […] The proteins were detected by ECL with exposure to Hyperfilm (Amersham Pharmacia). The amount of protein on the immunoblots was quantified using National Institutes of Health image software. […]
compound,measurement,setting,value
"CC(=O)CCC=C(C)CCC=C(C)CCC=C(C)CCC=C(C)C [GGA, 6, 10, 14, 18-tetramethyl-5,9, 13, 17-nonadecatetraen-2-one]",microstructure of myocardial cells by transmission electron microscopy,myocardial cells,preserved microstructurally
same,abnormalities (side-effects) during administration,[1],No particular abnormalities (side-effects) were observed
same,thioredoxin induction in the heart,thioredoxin,not induced
same,HSP70 expression in the heart (relative density to control group),HSP70,increased
